Results: ChEMBL document CHEMBL1201862, “PubChem BioAssay data set” (2004)
Calls of active or inactive are those of the source. Where a SMILES comes first, the peptide text is derived from it. The star is where a group is joined. Boc = CC(C)(C)OC(=O)*; OtBu = CC(C)(C)O*

Experiments:
[1] = target: T1, Replicative DNA helicase DnaB (Mycobacterium tuberculosis, UniProt P9WMR3); assay: DnaB intein splicing inhibitors, dose response, biochemical, cell-free fluorescence (AID 449749); type: functional
T1 sequence (P9WMR3 whole entry): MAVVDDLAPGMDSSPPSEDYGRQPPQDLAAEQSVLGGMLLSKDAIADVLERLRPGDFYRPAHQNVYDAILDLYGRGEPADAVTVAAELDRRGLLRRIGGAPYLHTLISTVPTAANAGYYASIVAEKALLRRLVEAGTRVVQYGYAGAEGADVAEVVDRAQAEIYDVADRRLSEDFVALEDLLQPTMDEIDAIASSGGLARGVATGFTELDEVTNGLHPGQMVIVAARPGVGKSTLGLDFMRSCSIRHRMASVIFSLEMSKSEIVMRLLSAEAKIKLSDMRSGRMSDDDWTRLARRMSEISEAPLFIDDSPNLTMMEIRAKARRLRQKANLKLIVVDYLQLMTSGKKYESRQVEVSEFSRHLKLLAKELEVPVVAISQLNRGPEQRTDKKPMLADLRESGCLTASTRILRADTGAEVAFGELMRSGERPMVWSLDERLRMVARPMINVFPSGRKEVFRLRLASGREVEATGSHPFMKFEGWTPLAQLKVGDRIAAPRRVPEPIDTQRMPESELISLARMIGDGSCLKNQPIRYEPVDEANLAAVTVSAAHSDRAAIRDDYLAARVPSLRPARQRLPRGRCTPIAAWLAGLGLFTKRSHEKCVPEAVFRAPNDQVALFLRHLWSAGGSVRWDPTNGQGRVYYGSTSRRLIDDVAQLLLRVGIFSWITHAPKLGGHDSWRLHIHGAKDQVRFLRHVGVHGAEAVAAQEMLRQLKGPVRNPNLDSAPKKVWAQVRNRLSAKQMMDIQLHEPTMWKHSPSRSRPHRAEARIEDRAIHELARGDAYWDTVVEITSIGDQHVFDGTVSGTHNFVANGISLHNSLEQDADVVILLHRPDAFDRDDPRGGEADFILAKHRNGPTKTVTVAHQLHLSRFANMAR

[2] = target: T2, Protein RecA (Mycobacterium tuberculosis, UniProt P9WHJ3); assay: Fluorescence Cell-Free Homogeneous Dose Retest to Identify Inhibitors of RecA-Intein Splicing Activity. [Related pubchem assays (depositor defined):AID2097, AID2223, AID489010, AID492950]; type: functional
T2 sequence (P9WHJ3 whole entry): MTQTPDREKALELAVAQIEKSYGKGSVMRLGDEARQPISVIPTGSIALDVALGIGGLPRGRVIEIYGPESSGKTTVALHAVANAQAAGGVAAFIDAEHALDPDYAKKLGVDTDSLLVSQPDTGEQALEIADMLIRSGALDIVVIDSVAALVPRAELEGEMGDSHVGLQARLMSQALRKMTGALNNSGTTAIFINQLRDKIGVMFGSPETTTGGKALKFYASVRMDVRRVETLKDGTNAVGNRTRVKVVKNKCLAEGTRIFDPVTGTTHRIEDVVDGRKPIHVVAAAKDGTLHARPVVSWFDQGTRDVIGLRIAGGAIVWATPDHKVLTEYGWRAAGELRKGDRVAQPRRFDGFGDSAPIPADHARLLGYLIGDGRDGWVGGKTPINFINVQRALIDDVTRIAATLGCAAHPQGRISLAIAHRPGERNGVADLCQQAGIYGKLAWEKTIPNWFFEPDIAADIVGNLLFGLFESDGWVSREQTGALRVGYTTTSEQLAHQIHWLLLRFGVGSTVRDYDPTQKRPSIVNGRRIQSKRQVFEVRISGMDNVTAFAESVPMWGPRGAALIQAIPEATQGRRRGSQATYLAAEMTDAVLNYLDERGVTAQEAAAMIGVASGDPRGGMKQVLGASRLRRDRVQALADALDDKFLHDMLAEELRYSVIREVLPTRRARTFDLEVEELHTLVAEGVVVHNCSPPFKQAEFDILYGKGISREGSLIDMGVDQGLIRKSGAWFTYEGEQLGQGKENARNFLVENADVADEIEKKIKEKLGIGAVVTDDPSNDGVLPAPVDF

[3] = target: T3, Corticotropin-releasing factor receptor 2/Corticotropin-releasing factor-binding protein (Homo sapiens, UniProt P24387+Q13324); assay: activators of CRF receptor 2 with binding protein – uHTS hits, confirmation (AID 602473); type: functional; settings: read-out: EC50_Mean
T3 sequence (Q13324 whole entry): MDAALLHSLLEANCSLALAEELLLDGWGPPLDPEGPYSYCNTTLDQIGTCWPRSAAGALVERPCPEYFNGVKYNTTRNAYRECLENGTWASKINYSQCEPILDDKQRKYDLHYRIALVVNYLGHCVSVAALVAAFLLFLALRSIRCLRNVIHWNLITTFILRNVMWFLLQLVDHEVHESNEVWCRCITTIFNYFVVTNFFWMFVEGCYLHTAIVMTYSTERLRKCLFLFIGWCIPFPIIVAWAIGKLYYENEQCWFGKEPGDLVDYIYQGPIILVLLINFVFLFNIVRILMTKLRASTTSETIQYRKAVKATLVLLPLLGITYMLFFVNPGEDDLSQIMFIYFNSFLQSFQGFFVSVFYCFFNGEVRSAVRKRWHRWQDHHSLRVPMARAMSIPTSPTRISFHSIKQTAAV
T3 sequence (P24387 whole entry): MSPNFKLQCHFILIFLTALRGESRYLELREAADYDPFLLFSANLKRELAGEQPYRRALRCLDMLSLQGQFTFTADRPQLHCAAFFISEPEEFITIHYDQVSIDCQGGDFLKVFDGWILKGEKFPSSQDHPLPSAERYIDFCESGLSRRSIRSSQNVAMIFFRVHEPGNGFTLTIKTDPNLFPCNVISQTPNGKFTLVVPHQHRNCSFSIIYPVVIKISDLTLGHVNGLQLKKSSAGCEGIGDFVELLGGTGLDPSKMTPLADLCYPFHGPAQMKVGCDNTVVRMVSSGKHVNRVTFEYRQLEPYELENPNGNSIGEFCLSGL

[4] = target: Paired box protein Pax-8 (Homo sapiens, UniProt Q06710); assay: PAX8 transcriptional activity inhibition in RMG-I – RMG-I cells, luciferase, cherry-pick, dose response (AID 687027); type: functional, cell-based;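 also: luciferase reporter driven by Pax8 target thyroperoxidase promoter measured by SteadyGlo luminescence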
Paired box protein Pax-8, sequence (Q06710 whole entry): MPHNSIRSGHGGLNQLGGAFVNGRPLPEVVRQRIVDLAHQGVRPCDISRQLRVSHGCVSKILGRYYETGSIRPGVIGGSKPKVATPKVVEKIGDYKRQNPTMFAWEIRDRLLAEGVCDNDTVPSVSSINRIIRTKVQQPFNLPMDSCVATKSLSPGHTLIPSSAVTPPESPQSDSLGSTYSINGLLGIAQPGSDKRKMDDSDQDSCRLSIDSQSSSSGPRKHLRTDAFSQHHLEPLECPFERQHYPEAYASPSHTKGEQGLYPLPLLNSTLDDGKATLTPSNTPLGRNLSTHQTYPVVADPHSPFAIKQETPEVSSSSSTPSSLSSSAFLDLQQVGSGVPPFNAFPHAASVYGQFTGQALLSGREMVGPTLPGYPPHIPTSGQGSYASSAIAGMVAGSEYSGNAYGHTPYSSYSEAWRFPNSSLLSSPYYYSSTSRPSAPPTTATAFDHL

[5] = Luminescence Cell-Based Dose Retest to Confirm Inhibitors of Cancer Stem Cells. [Related pubchem assays (depositor defined):AID2717, AID2721]; type: functional; settings: Homo sapiens
[6] = target: T4, Ubiquitin-conjugating enzyme E2 N (Homo sapiens, UniProt P61088); type: functional;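 also: Dose-response confirmation in a TR-FRET assay detecting UBC13-driven polyubiquitin chain formation, inhibition measured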
T4 sequence (P61088 whole entry): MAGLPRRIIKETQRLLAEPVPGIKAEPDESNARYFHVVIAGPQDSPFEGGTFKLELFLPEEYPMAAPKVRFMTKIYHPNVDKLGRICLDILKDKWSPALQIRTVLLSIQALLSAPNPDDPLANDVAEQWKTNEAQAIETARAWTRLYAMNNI

[7] = reduction of Shn3 3'UTR-driven luciferase in osteoblasts – cell-based, Clone20 osteoblasts, firefly luciferase, cherry-picked, dose response (AID 624132); type: functional;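 also: firefly luciferase luminescence from reporter carrying the Shn3 3'UTR in osteoblasts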
[8] = target: T5, Heat shock factor protein 1 (Mus musculus, UniProt P38532); assay: enhancement of HSF1-driven luciferase signal – cell-based, NIH3T3, luminescence, dose retest, confirmation (AID 435004); type: functional;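 also: stress induced by proteasome inhibitor MG132 added 30 min after compound; luciferase reporter driven by HSF1 response element in NIH3T3 cells; actives raise luminescence as potentiators of the MG132 stress response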
T5 sequence (P38532 whole entry): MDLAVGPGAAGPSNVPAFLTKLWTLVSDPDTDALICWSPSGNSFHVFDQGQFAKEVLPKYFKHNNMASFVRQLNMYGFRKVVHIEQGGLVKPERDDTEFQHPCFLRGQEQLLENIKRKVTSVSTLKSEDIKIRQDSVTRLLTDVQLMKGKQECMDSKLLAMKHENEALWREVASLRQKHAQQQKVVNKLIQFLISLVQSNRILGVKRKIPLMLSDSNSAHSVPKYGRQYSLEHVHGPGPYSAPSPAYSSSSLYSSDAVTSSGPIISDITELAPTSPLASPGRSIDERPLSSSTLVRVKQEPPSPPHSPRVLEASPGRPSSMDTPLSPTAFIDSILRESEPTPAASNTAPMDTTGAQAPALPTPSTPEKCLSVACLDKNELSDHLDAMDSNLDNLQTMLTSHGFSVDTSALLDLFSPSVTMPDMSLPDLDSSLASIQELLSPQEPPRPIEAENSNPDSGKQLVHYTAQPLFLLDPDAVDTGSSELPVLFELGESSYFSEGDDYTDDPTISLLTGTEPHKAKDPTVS

[9] = NIH-3T3 fibroblast cytotoxicity, dose response, cytotoxicity control, cell-based, fluorescence, Alamar Blue, secondary assay (AID 2327); type: functional;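 also: NIH-3T3 mouse fibroblasts cultured with fluconazole at 8 µg/mL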
[10] = fluconazole-exposed Candida albicans growth modulators – fluorescence, retest, confirmation (AID 2467); type: functional, cell-based
[11] = tested on: INS1; assay: INS-1E survival protection against cytokine death – cell-based, luminescence, retest, dose response (AID 449756); type: functional; settings: Rattus norvegicus;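 also: cell death triggered by IL-1 beta plus TNF-alpha plus IFN-gamma mixture; protective hits raise ATP signal compared with cytokine alone wells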

Compound: C/C(CC(=O)Nc1ccc(Cl)cn1)=N\NC(=O)Cc1cccs1
- AC50 [1]: 30.5 µM (active)
- EC50 [2]: 5.12 µM (active)

Compound: COc1cc2c(cc1OC)C(c1c(Cl)cccc1Cl)NC(=O)C2 (centres undefined)
- EC50 [3]: 10.9 µM (active)

Compound: COC(=O)C1=C(c2ccc(F)cc2OCc2ccccc2)C[C@@H]2CC[C@H]1N2C(=O)NCc1ccc(C)cc1
- AC50 [4]: 15.1 µM (active)

Compound: CN(C)/C=N/c1nccc(-c2cccs2)n1
- EC50 [3]: > 53 µM (inactive)

Compound: Cc1c(CCOC(=O)CC23CC4CC(CC(C4)C2)C3)sc[n+]1CC(=O)c1ccc(Br)cc1
- AC50 [5]: 2.42 µM (active)
- IC50 [6]: > 20 µM (inactive)
- AC50 [7]: 12.9 µM (active)

Compound: COc1cc(-c2nnn(CC#N)n2)ccc1OCc1ccccc1
- EC50 [8]: 90.9 µM (active)

Compound: Cc1nc(SCC(=O)c2ccccc2)c(C#N)c(-c2ccco2)c1C(=O)NCc1ccco1
- EC50 [8]: 99.7 µM (active)

Compound: COc1ccc(C(=O)n2nnc3ccccc32)cc1Br
- AC50 [1]: 24.6 µM (active)
- EC50 [2]: 30 µM (active)

Compound: O=C(Cc1ccc([N+](=O)[O-])cc1)N1N=C(C2CC2)CC1(O)C(F)(F)F (centres undefined)
- EC50 [8]: > 260 µM (inactive)

Compound: Cc1ccc(OC(=O)c2ccc(C)c(C)c2)cn1
- EC50 [8]: > 260 µM (inactive)

Compound: Oc1ccc(C2=NN=C(NCc3ccc4c(c3)OCO4)SC2)c(O)c1
- IC50 [6]: > 20 µM (inactive)

Compound: Cc1cccc(OCC(=O)Oc2ccc(Cl)cc2)c1
- AC50 [1]: 9.75 µM (active)
- EC50 [2]: 35.1 µM (active)

Compound: CCN(CC)C(=O)Oc1ccc(Br)cc1C(=O)Nc1ccc(F)cc1F
- EC50 [8]: > 260 µM (inactive)

Compound: COc1ccc(/C=C2/C(=O)N(c3cccc(F)c3)N=C2C)c(OC)c1
- AC50 [1]: 4.14 µM (active)
- EC50 [2]: 44.6 µM (active)

Compound: COC(=O)C(Cc1ccc(O)cc1)NC(=O)C(CC(=O)OC(C)(C)C)NC(=O)OC(C)(C)C (centres undefined) (Boc-Asp(OtBu)-Tyr-OMe; configuration not given here)
- EC50 [8]: > 260 µM (inactive)

Compound: CCc1ccc(NC(=O)CSC2=C(C#N)C(c3ccc4c(c3)OCO4)CC(=O)N2)cc1 (centres undefined)
- EC50 [8]: > 260 µM (inactive)

Compound: Cc1ccc(-c2cc(C(F)(F)F)c(C#N)c(SCC(=O)O)n2)cc1
- EC50 [8]: > 260 µM (inconclusive)

Compound: CCN(C[C@H]1N[C@@](Cc2ccccc2)(C(=O)OC)[C@H]2C(=O)N(Cc3ccccc3)C(=O)[C@@H]12)C(=O)C1CCCCC1
- EC50 [3]: 5.33 µM (active)

Compound: COc1ccccc1NS(=O)(=O)c1cc(NC(=O)CCC(=O)c2cccs2)ccc1Cl
- EC50 [9]: 123 µM (active)
- EC50 [10]: 0.417 µM (active)

Compound: O=C(CNS(=O)(=O)c1ccc(Br)s1)NCc1ccccc1
- EC50 [8]: > 260 µM (inactive)

Compound: Cc1ccc(OCC(=O)N/N=C\c2c(C)[nH]n(-c3ccccc3)c2=O)c([N+](=O)[O-])c1
- EC50 [9]: > 150 µM (inactive)
- EC50 [10]: 6.77 µM (active)

Compound: O=[N+]([O-])c1ccc(N2CCCCCC2)c([N+](=O)[O-])c1
- EC50 [8]: > 260 µM (inactive)

Compound: Cn1c(SCC(=O)NCC2CCCO2)ncc(C(=O)Nc2ccccc2)c1=O (centres undefined)
- AC50 [1]: 28 µM (active)
- EC50 [2]: 3.38 µM (active)

Compound: N#CC(CO)(Cc1ccc(OC(F)F)cc1)c1nc2ccccc2[nH]1 (centres undefined)
- EC50 [8]: > 260 µM (inactive)

Compound: CC1SC(c2ccc(Cl)cc2)NC1=O (centres undefined)
- EC50 [8]: > 260 µM (inactive)

Compound: CC1CC(=O)N(c2ccc(Br)cc2)C(=O)C1
- EC50 [8]: > 260 µM (inactive)
- AC50 [11]: > 260 µM (inactive)

Compound: CC[n+]1ccc2cc(OC)c(OC)cc2c1Cc1ccc(OC)c(OC)c1
- AC50 [1]: > 120 µM (inactive)
- EC50 [2]: > 380 µM (inactive)

Compound: Cn1c(SCc2ccccc2C#N)nc2ccccc2c1=O
- EC50 [8]: > 260 µM (inactive)

Compound: CC1=NN(C)C(=O)C1Cc1c(F)cccc1Cl (centres undefined)
- AC50 [1]: 5.39 µM (active)
- EC50 [2]: 0.74 µM (active)

Compound: Cc1ccc2nc(Cl)c3nnnn3c2c1
- EC50 [9]: 4.94 µM (inconclusive)
- EC50 [10]: 0.646 µM (active)

Compound: Oc1ccc2ccccc2c1CNc1ccccn1
- IC50 [6]: > 20 µM (inactive)
